From US20060167242A1, “Cephalosporin in crystalline form” (priority 2004, published 2006)

Assay: Determination of storage stability of crystalline material (HPLC analysis after storage)
Assay type: physicochemical
Method: Determination of Storage Stability of Crystalline Material of Formula I
A crystalline and an amorphous sample of (6R,7R)-7-[(Z)-2-(5-Amino-[1,2,4]thiadiazol-3yl)-2-hydroxyimino-acetylamino1-8-oxo-3-[(E)-(R)-1′-(5-methyl-2-oxo-1,3]dioxol-4-ylmethoxycarbonyl)-2-oxo-[1,3′]bipyrrolidinyl-3-ylidenemethyl]-8-oxo-5-thia-1-aza-bicyclo[4.2.0]oct-2-ene-2-carboxylic acid were stored at different temperatures for 24 hours, 28 days and for 3 months.

[1] = 3 months, 5° C. (as compared to −20° C.)
[2] = storage for 3 months, Temperature 5, Rel. Humidity Ca. 58%
[3] = storage for 3 months, Temperature 25, Rel. Humidity Ca. 58%
[4] = storage for 3 months, −20° C., Rel. Humidity Not defined
[5] = storage for 24 hours, Temperature 5, Rel. Humidity Ca. 58%
[6] = storage for 24 hours, Temperature 25, Rel. Humidity Ca. 58%
[7] = storage for 24 hours, Temperature 40, Rel. Humidity Ca. 75%
[8] = storage for 24 hours, Temperature 60, Rel. Humidity Ca. 75%
[9] = storage for 24 hours, −20° C., Rel. Humidity Not defined
[10] = storage for 28 days, Temperature 5, Rel. Humidity Ca. 58%
[11] = storage for 28 days, Temperature 25, Rel. Humidity Ca. 58%
[12] = storage for 28 days, −20° C., Rel. Humidity Not defined

decomposition on storage (in words) [1]	decomposition on storage (in words) (3 months, 25° C.)	decomposition on storage (in words) (28 days, 25° C.)	Area-% (HPLC) [2] [Area-%]	Area-% (HPLC) [3] [Area-%]	Area-% (HPLC) [4] [Area-%]	Area-% (HPLC) [5] [Area-%]	Area-% (HPLC) [6] [Area-%]	Area-% (HPLC) [7] [Area-%]	Area-% (HPLC) [8] [Area-%]	stability on storage (in words) (storage for 24 hours, whole temperature range of investigation)	Area-% (HPLC) [9] [Area-%]	Area-% (HPLC) [10] [Area-%]	Area-% (HPLC) [11] [Area-%]	Area-% (HPLC) [12] [Area-%]	decomposition on storage (in words) (28 days, 5° C.)	decomposition on storage (in words) (storage for 24 hours, temperatures above 5° C.)	Structure (SMILES)
no decomposition	slight decomposition	slight decomposition	93.9	93.4	94	95.7	95.75	95.45	95.57	very good stability	95.77	95.2	94.9	95.3	–	–	Cc1oc(=O)oc1COC(=O)N1CC[C@@H](N2CC/C(=C\C3=C(C(=O)O)N4C(=O)[C@@H](NC(=O)/C(=N\O)c5nsc(N)n5)[C@H]4SC3)C2=O)C1.Cl [crystalline compound II, (6R,7R)-7-[(Z)-2-(5-Amino-[1,2,4]thiadiazol-3-yl) -2-hydroxyimino-acetylamino]-8-oxo-3-[(E)-(R)-1′-(5-methyl-2-oxo-[1,3]dioxol-4-ylmethoxycarbonyl)-2-oxo-[1,3′]bipyrrolidinyl-3-ylidenemethyl]-8-oxo5-thia-1-aza-bicyclo[4.2.0]oct-2-ene-2-carboxylic acid Hydrochloride Trihydrate]
slight decomposition	strongly decreased	–	96.9	91.4	97.6	99.05	98.85	98.25	96.67	–	99.04	98.1	96.4	98.6	decreased	decomposed significantly	Cc1oc(=O)oc1COC(=O)N1CC[C@@H](N2CC/C(=C\C3=C(C(=O)O)N4C(=O)[C@@H](NC(=O)/C(=N\O)c5nsc(N)n5)[C@H]4SC3)C2=O)C1 [amorphous compound I, (6R,7R)-7-[(Z)-2-(5-Amino-[1,2,4]thiadiazol-3yl)-2-hydroxyimino-acetylamino1-8-oxo-3-[(E)-(R)-1′-(5-methyl-2-oxo-1,3]dioxol-4-ylmethoxycarbonyl)-2-oxo-[1,3′]bipyrrolidinyl-3-ylidenemethyl]-8-oxo-5-thia-1-aza-bicyclo[4.2.0]oct-2-ene-2-carboxylic acid]
